Data: PubChem BioAssay (NCI)
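Cells were grown in 96-well plates and exposed to each compound for 48 hours at five concentrations; endpoints were interpolated linearly between bracketing concentrations, or set to the highest concentration if not reached. The concentration for 50% growth inhibition is given as GI50. At the TGI there is no net growth.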

How the values were obtained:
Test in all cases: inhibition of tumour cell growth, NCI panel, 48 h
CCRF-CEM leukemia = tested on: CCRF-CEM leukemia
OVCAR-5 ovarian = tested on: OVCAR-5 ovarian
M14 melanoma = tested on: M14 melanoma
UO-31 renal = tested on: UO-31 renal
SF-295 CNS = tested on: SF-295 CNS
HCT-116 colon = tested on: HCT-116 colon
HCT-15 colon = tested on: HCT-15 colon
OVCAR-8 ovarian = tested on: OVCAR-8 ovarian
CAKI-1 renal = tested on: CAKI-1 renal
EKVX NSCLC = tested on: EKVX NSCLC
NCI-H460 lung = tested on: NCI-H460 lung
OVCAR-4 ovarian = tested on: OVCAR-4 ovarian
BT-549 breast = tested on: BT-549 breast
KM12 colon = tested on: KM12 colon
A549 NSCLC = tested on: A549 NSCLC
K-562 leukemia = tested on: K-562 leukemia
NCI/ADR-RES ovarian = tested on: NCI/ADR-RES ovarian
LOX IMVI melanoma = tested on: LOX IMVI melanoma
TK-10 renal = tested on: TK-10 renal
SK-MEL-2 melanoma = tested on: SK-MEL-2 melanoma
ACHN renal = tested on: ACHN renal
OVCAR-3 ovarian = tested on: OVCAR-3 ovarian
SN12C renal = tested on: SN12C renal
COLO 205 colon = tested on: COLO 205 colon
NCI-H522 lung = tested on: NCI-H522 lung
MDA-MB-435 = tested on: MDA-MB-435
HT29 colon = tested on: HT29 colon
SK-OV-3 ovarian = tested on: SK-OV-3 ovarian
T-47D breast = tested on: T-47D breast
HL-60(TB) leukemia = tested on: HL-60(TB) leukemia
NCI-H23 lung = tested on: NCI-H23 lung
SK-MEL-28 melanoma = tested on: SK-MEL-28 melanoma
HCC-2998 colon = tested on: HCC-2998 colon
SK-MEL-5 melanoma = tested on: SK-MEL-5 melanoma
MALME-3M melanoma = tested on: MALME-3M melanoma
SF-539 CNS = tested on: SF-539 CNS
SNB-19 CNS = tested on: SNB-19 CNS
HS 578T breast = tested on: HS 578T breast
HOP-62 NSCLC = tested on: HOP-62 NSCLC
UACC-62 melanoma = tested on: UACC-62 melanoma
NCI-H226 lung = tested on: NCI-H226 lung
SF-268 CNS = tested on: SF-268 CNS
RXF 393 renal = tested on: RXF 393 renal
SW-620 colon = tested on: SW-620 colon
UACC-257 melanoma = tested on: UACC-257 melanoma
MCF7 breast = tested on: MCF7 breast
PC-3 prostate = tested on: PC-3 prostate
MDA-MB-231 breast = tested on: MDA-MB-231 breast
SNB-75 CNS = tested on: SNB-75 CNS
786-0 renal = tested on: 786-0 renal
SR leukemia = tested on: SR leukemia
RPMI-8226 leukemia = tested on: RPMI-8226 leukemia
IGROV1 ovarian = tested on: IGROV1 ovarian
DU-145 prostate = tested on: DU-145 prostate
U251 CNS = tested on: U251 CNS
A498 renal = tested on: A498 renal

## C[C@@]1(C(=O)O)CCC[C@]2(C)C1CC[C@@]13C[C@@](O)(CC[C@]12O)[C@@]1(CO1)C3 (stereo partly specified)
CCRF-CEM leukemia
  GI50: > 100 µM
  TGI: > 100 µM
OVCAR-5 ovarian
  GI50: > 100 µM
  TGI: > 100 µM
M14 melanoma
  GI50: > 100 µM
  TGI: > 100 µM
UO-31 renal
  GI50: > 100 µM
  TGI: > 100 µM
SF-295 CNS
  GI50: > 100 µM
  TGI: > 100 µM
HCT-116 colon
  GI50: > 100 µM
  TGI: > 100 µM
HCT-15 colon
  GI50: > 100 µM
  TGI: > 100 µM
OVCAR-8 ovarian
  GI50: > 100 µM
  TGI: > 100 µM
CAKI-1 renal
  GI50: > 100 µM
  TGI: > 100 µM
EKVX NSCLC
  GI50: > 100 µM
  TGI: > 100 µM
NCI-H460 lung
  GI50: > 100 µM
  TGI: > 100 µM
OVCAR-4 ovarian
  GI50: > 100 µM
  TGI: > 100 µM
BT-549 breast
  GI50: > 100 µM
  TGI: > 100 µM
KM12 colon
  GI50: > 100 µM
  TGI: > 100 µM
A549 NSCLC
  GI50: > 100 µM
  TGI: > 100 µM
K-562 leukemia
  GI50: > 100 µM
  TGI: > 100 µM
NCI/ADR-RES ovarian
  GI50: > 100 µM
  TGI: > 100 µM
LOX IMVI melanoma
  GI50: > 100 µM
  TGI: > 100 µM
TK-10 renal
  GI50: > 100 µM
  TGI: > 100 µM
SK-MEL-2 melanoma
  GI50: > 100 µM
  TGI: > 100 µM
ACHN renal
  GI50: > 100 µM
  TGI: > 100 µM
OVCAR-3 ovarian
  GI50: > 100 µM
  TGI: > 100 µM
SN12C renal
  GI50: > 100 µM
  TGI: > 100 µM
COLO 205 colon
  GI50: > 100 µM
  TGI: > 100 µM
NCI-H522 lung
  GI50: > 100 µM
  TGI: > 100 µM
MDA-MB-435
  GI50: > 100 µM
  TGI: > 100 µM
HT29 colon
  GI50: > 100 µM
  TGI: > 100 µM
SK-OV-3 ovarian
  GI50: > 100 µM
  TGI: > 100 µM
T-47D breast
  GI50: > 100 µM
  TGI: > 100 µM
HL-60(TB) leukemia
  GI50: > 100 µM
  TGI: > 100 µM
NCI-H23 lung
  GI50: > 100 µM
  TGI: > 100 µM
SK-MEL-28 melanoma
  GI50: > 100 µM
  TGI: > 100 µM
HCC-2998 colon
  GI50: > 100 µM
  TGI: > 100 µM
SK-MEL-5 melanoma
  GI50: > 100 µM
  TGI: > 100 µM
MALME-3M melanoma
  GI50: > 100 µM
  TGI: > 100 µM
SF-539 CNS
  GI50: > 100 µM
  TGI: > 100 µM
SNB-19 CNS
  GI50: > 100 µM
  TGI: > 100 µM
HS 578T breast
  GI50: > 100 µM
  TGI: > 100 µM
HOP-62 NSCLC
  GI50: > 100 µM
  TGI: > 100 µM
UACC-62 melanoma
  GI50: > 100 µM
  TGI: > 100 µM
NCI-H226 lung
  GI50: > 100 µM
  TGI: > 100 µM
SF-268 CNS
  GI50: > 100 µM
  TGI: > 100 µM
RXF 393 renal
  GI50: > 100 µM
  TGI: > 100 µM
SW-620 colon
  GI50: > 100 µM
  TGI: > 100 µM
UACC-257 melanoma
  GI50: > 100 µM
  TGI: > 100 µM
MCF7 breast
  GI50: > 100 µM
  TGI: > 100 µM
PC-3 prostate
  GI50: > 100 µM
  TGI: > 100 µM
MDA-MB-231 breast
  GI50: > 100 µM
  TGI: > 100 µM
SNB-75 CNS
  GI50: > 100 µM
  TGI: > 100 µM
786-0 renal
  GI50: > 100 µM
  TGI: > 100 µM
SR leukemia
  TGI: > 100 µM
RPMI-8226 leukemia
  GI50: > 100 µM
  TGI: > 100 µM
IGROV1 ovarian
  GI50: > 100 µM
  TGI: > 100 µM
DU-145 prostate
  GI50: > 100 µM
  TGI: > 100 µM
U251 CNS
  GI50: > 100 µM
  TGI: > 100 µM
A498 renal
  GI50: > 100 µM
  TGI: > 100 µM
